Experimental data as given in ChEMBL document CHEMBL1150540, “Aromatic P1 replacements for the highly potent HIV-1 protease inhibitor CRIXIVAN” (Bioorg Med Chem Lett, 1996).
pIC50: −log10 of the molar value.

These molecules were tested against Human immunodeficiency virus type 1 protease (Human immunodeficiency virus 1, UniProt Q72874) (assay: Inhibition of HIV-1 protease.).
`COc1cc(Oc2ccccc2)ccc1C[C@@H](O)C[C@@H](Cc1ccccc1)C(=O)N[C@H]1c2ccccc2C[C@H]1O` showed a pIC50 of 7.35. With `COc1ccc(C[C@@H](O)C[C@@H](Cc2ccccc2)C(=O)N[C@H]2c3ccccc3C[C@H]2O)c(OC)c1` the pIC50 was 6.98. `Cc1ccc(C[C@@H](O)C[C@@H](Cc2ccccc2)C(=O)N[C@H]2c3ccccc3C[C@H]2O)c(C(=O)NC(C)(C)C)c1` gave a pIC50 of 8.77. Work on `CC(C)(C)NC(=O)c1ccccc1C[C@@H](O)C[C@@H](Cc1ccccc1)C(=O)N[C@H]1c2ccccc2C[C@H]1O` yielded a pIC50 of 8.33. `O=C(N[C@H]1c2ccccc2C[C@H]1O)[C@H](Cc1ccccc1)C[C@H](O)Cc1ccccc1O` was tested, and the pIC50 was 5.80. `NS(=O)(=O)c1ccccc1C[C@@H](O)C[C@@H](Cc1ccccc1)C(=O)N[C@H]1c2ccccc2C[C@H]1O` was tested, and the pIC50 was 6.54. `COc1ccccc1C[C@@H](O)C[C@@H](Cc1ccccc1)C(=O)N[C@H]1c2ccccc2C[C@H]1O` gave a pIC50 of 7.10. Molecule `CC(C)(C)NS(=O)(=O)c1ccccc1C[C@@H](O)C[C@@H](Cc1ccccc1)C(=O)N[C@H]1c2ccccc2C[C@H]1O` has a pIC50 of 8.22. `O=C(N[C@H]1c2ccccc2C[C@H]1O)[C@H](Cc1ccccc1)C[C@H](O)Cc1ccccc1` gave a pIC50 of 5.92. Work on `CS(=O)(=O)c1ccccc1C[C@@H](O)C[C@@H](Cc1ccccc1)C(=O)N[C@H]1c2ccccc2C[C@H]1O` yielded a pIC50 of 6.50. `COCOc1ccccc1C[C@@H](O)C[C@@H](Cc1ccccc1)C(=O)N[C@H]1c2ccccc2C[C@H]1O` was tested, and the pIC50 was 6.56. For `CC(C)(C)NC(=O)[C@@H]1CCCCN1C[C@@H](O)C[C@@H](Cc1ccccc1)C(=O)N[C@H]1c2ccccc2C[C@H]1O`, the pIC50 was 7.10. Molecule `CSc1ccccc1C[C@@H](O)C[C@@H](Cc1ccccc1)C(=O)N[C@H]1c2ccccc2C[C@H]1O` has a pIC50 of 7.02. For `CC(C)(C)NC(=O)[C@@H]1CNCCN1C[C@@H](O)C[C@@H](Cc1ccccc1)C(=O)N[C@H]1c2ccccc2C[C@H]1O`, the pIC50 was 7.42. Work on `CC(C)COc1ccccc1C[C@@H](O)C[C@@H](Cc1ccccc1)C(=O)N[C@H]1c2ccccc2C[C@H]1O` yielded a pIC50 of 7.01.

Each molecule was assayed against Human immunodeficiency virus type 1 protease (Human immunodeficiency virus 1) (UniProt Q72874) (assay: In vitro inhibition of HIV-1 protease, activity expressed as CIC95 in whole cell assay.).
`Cc1ccc(C[C@@H](O)C[C@@H](Cc2ccccc2)C(=O)N[C@H]2c3ccccc3C[C@H]2O)c(C(=O)NC(C)(C)C)c1` gave an IC95 of 400 nM. For `CC(C)(C)NC(=O)c1ccccc1C[C@@H](O)C[C@@H](Cc1ccccc1)C(=O)N[C@H]1c2ccccc2C[C@H]1O`, the IC95 was 800 nM. For `CC(C)(C)NC(=O)[C@@H]1CNCCN1C[C@@H](O)C[C@@H](Cc1ccccc1)C(=O)N[C@H]1c2ccccc2C[C@H]1O`, the IC95 was 3000 nM.
